Measurements taken from US4728509A, “Aqueous liquid preparation” (Takeda Chemical Industries, Ltd., priority 1985, dated 1988).
Converted amounts (≈) assume the structure as drawn. Like-named read-outs stand apart in the source and are kept apart here.

Tests used:
[1] = Solubility test of compound (a) with and without solubilizers (Experimental Example 1; HPLC of filtrate); conditions: phosphate buffer, Solubility of Compound (a), 48 hours
Protocol: Solubility tests of the compound (a) (2-amino-7-isopropyl-5-oxo-5H-[1]-benzopyrano[2,3-b]pyridine-3-carboxylic acid) employing the solubilizers of this invention and, for comparison, employing various conventional solubilizers were performed.
The solubility was measured by the following manner:
An excess amount of the compound (a) was added to a given volume of a phosphate buffer, the mixture was sufficiently stirred, then the pH was adjusted to a given level, the mixture was allowed to stand at room temperature (25° C.) for 48 hours, the resultant was subjected to filtration with 0.45μ membrane filter, followed by measuring the concentration of the compound (a) in the filtrate by means of high performance liquid chromatography.

[2] = Stability test of compound (a) in solution, remaining ratio at 60° C. (Experimental Example 2); assay type: physicochemical; conditions: phosphate buffer, pH 7.5±0.1; for remaining at 1344 h: 60° C. after 8 weeks
Protocol: The stability of the compound (a) was tested by the following manner.
At first, the stability of the compound (a) without any adjuvant was tested for comparison.
Two samples were prepared by dissolving 100 mg and 250 mg each portion of the compound (a) in phosphate buffer. To each of the solutions was added a solution of sodium hydroxide to adjust the pH to 7.5±0.1, followed by addition of purified water to make the whole volume 100 ml, provided that the solution of 2.5 mg/ml was prepared at 40° C. Each solution was filled in a glass bottle, which was stored at 60° C. for evaluation of the stability.
The results were shown in Table 2 as remaining ratio (%).
Next, the effect of improving the stability of the compound (a), when a solubilizer of this invention was added to the solution containing the compound (a), was examined.
To each sample was added a given amount of a solubilizer as specified in the table, followed by working up in a similar manner to the above (pH 7.5±0.1) for evaluation of the stability.
The results were shown in Table 3 as remaining ratio (%).

[3] = Solubility of compound (a); assay type: physicochemical

CC(C)c1ccc2oc3nc(N)c(C(=O)O)cc3c(=O)c2c1 [Compound (a), 2-amino-7-isopropyl-5-oxo-5H-[1]-benzopyrano[2,3-b]pyridine-3-carboxylic acid]
solubility at 48 h ([1]; pH 6, aqueous buffer, Caffeine 5 mg/ml, pH 6.0, 25° C.): 660 µg/mL (≈ 2.21 mM)
solubility at 48 h ([1]; pH 6, aqueous buffer, Caffeine 10 mg/ml, pH 6.0, 25° C.): 1650 µg/mL (≈ 5.53 mM)
solubility at 48 h ([1]; pH 6, aqueous buffer, Control, no solubilizer, pH 6.0, 25° C.): 20 µg/mL (≈ 0.067 mM)
solubility at 48 h ([1]; pH 6, aqueous buffer, Polyvinylpyrrolidone (average molecular weight 40000) 10 mg/ml, pH 6.0, 25° C.): 120 µg/mL (≈ 0.402 mM)
solubility at 48 h ([1]; pH 6, aqueous buffer, Polyvinylpyrrolidone (average molecular weight 40000) 50 mg/ml, pH 6.0, 25° C.): 320 µg/mL (≈ 1.07 mM)
solubility at 48 h ([1]; pH 6, aqueous buffer, Polyvinylpyrrolidone (average molecular weight 40000) 100 mg/ml, pH 6.0, 25° C.): 1590 µg/mL (≈ 5.33 mM)
solubility at 48 h ([1]; pH 6, aqueous buffer, Sodium benzoate 20 mg/ml, pH 6.0, 25° C.): 40 µg/mL (≈ 0.134 mM)
solubility at 48 h ([1]; pH 6, aqueous buffer, Tween 80 10 mg/ml, pH 6.0, 25° C.): 80 µg/mL (≈ 0.268 mM)
solubility at 48 h ([1]; pH 6, aqueous buffer, β-Cyclodextrin 10 mg/ml, pH 6.0, 25° C.): 720 µg/mL (≈ 2.41 mM)
solubility at 48 h ([1]; pH 6.5, aqueous buffer, Caffeine 5 mg/ml, pH 6.5, 25° C.): 1500 µg/mL (≈ 5.03 mM)
solubility at 48 h ([1]; pH 6.5, aqueous buffer, Caffeine 10 mg/ml, pH 6.5, 25° C.): 2670 µg/mL (≈ 8.95 mM)
solubility at 48 h ([1]; pH 6.5, aqueous buffer, Control, no solubilizer, pH 6.5, 25° C.): 80 µg/mL (≈ 0.268 mM)
solubility at 48 h ([1]; pH 6.5, aqueous buffer, Isoniazid 10 mg/ml, pH 6.5, 25° C.): 850 µg/mL (≈ 2.85 mM)
solubility at 48 h ([1]; pH 6.5, aqueous buffer, Nicotinic acid amide 10 mg/ml, pH 6.5, 25° C.): 820 µg/mL (≈ 2.75 mM)
solubility at 48 h ([1]; pH 6.5, aqueous buffer, Polyvinylpyrrolidone (average molecular weight 40000) 10 mg/ml, pH 6.5, 25° C.): 420 µg/mL (≈ 1.41 mM)
solubility at 48 h ([1]; pH 6.5, aqueous buffer, Polyvinylpyrrolidone (average molecular weight 40000) 50 mg/ml, pH 6.5, 25° C.): 1230 µg/mL (≈ 4.12 mM)
solubility at 48 h ([1]; pH 6.5, aqueous buffer, Polyvinylpyrrolidone (average molecular weight 40000) 100 mg/ml, pH 6.5, 25° C.): 4630 µg/mL (≈ 15.5 mM)
solubility at 48 h ([1]; pH 6.5, aqueous buffer, Sodium benzoate 20 mg/ml, pH 6.5, 25° C.): 290 µg/mL (≈ 0.972 mM)
solubility at 48 h ([1]; pH 6.5, aqueous buffer, Tween 80 10 mg/ml, pH 6.5, 25° C.): 470 µg/mL (≈ 1.58 mM)
solubility at 48 h ([1]; pH 6.5, aqueous buffer, β-Cyclodextrin 10 mg/ml, pH 6.5, 25° C.): 1400 µg/mL (≈ 4.69 mM)
solubility at 48 h ([1]; pH 7, aqueous buffer, Caffeine 5 mg/ml, pH 7.0, 25° C.): 3720 µg/mL (≈ 12.5 mM)
solubility at 48 h ([1]; pH 7, aqueous buffer, Caffeine 10 mg/ml, pH 7.0, 25° C.): 7050 µg/mL (≈ 23.6 mM)
solubility at 48 h ([1]; pH 7, aqueous buffer, Control, no solubilizer, pH 7.0, 25° C.): 330 µg/mL (≈ 1.11 mM)
solubility at 48 h ([1]; pH 7, aqueous buffer, Isoniazid 10 mg/ml, pH 7.0, 25° C.): 1330 µg/mL (≈ 4.46 mM)
solubility at 48 h ([1]; pH 7, aqueous buffer, Nicotinic acid amide 10 mg/ml, pH 7.0, 25° C.): 1210 µg/mL (≈ 4.06 mM)
solubility at 48 h ([1]; pH 7, aqueous buffer, Polyvinylpyrrolidone (average molecular weight 40000) 10 mg/ml, pH 7.0, 25° C.): 1060 µg/mL (≈ 3.55 mM)
solubility at 48 h ([1]; pH 7, aqueous buffer, Polyvinylpyrrolidone (average molecular weight 40000) 50 mg/ml, pH 7.0, 25° C.): 3230 µg/mL (≈ 10.8 mM)
solubility at 48 h ([1]; pH 7, aqueous buffer, Polyvinylpyrrolidone (average molecular weight 40000) 100 mg/ml, pH 7.0, 25° C.): 10000 µg/mL (≈ 33.7 mM)
solubility at 48 h ([1]; pH 7, aqueous buffer, Sodium benzoate 20 mg/ml, pH 7.0, 25° C.): 420 µg/mL (≈ 1.41 mM)
solubility at 48 h ([1]; pH 7, aqueous buffer, β-Cyclodextrin 10 mg/ml, pH 7.0, 25° C.): 2300 µg/mL (≈ 7.71 mM)
solubility at 48 h ([1]; pH 7.5, aqueous buffer, Caffeine 5 mg/ml, pH 7.5, 25° C.): 7440 µg/mL (≈ 24.9 mM)
solubility at 48 h ([1]; pH 7.5, aqueous buffer, Caffeine 10 mg/ml, pH 7.5, 25° C.): 9210 µg/mL (≈ 30.9 mM)
solubility at 48 h ([1]; pH 7.5, aqueous buffer, Control, no solubilizer, pH 7.5, 25° C.): 1050 µg/mL (≈ 3.52 mM)
solubility at 48 h ([1]; pH 7.5, aqueous buffer, Isoniazid 10 mg/ml, pH 7.5, 25° C.): 1560 µg/mL (≈ 5.23 mM)
solubility at 48 h ([1]; pH 7.5, aqueous buffer, Nicotinic acid amide 10 mg/ml, pH 7.5, 25° C.): 1530 µg/mL (≈ 5.13 mM)
solubility at 48 h ([1]; pH 7.5, aqueous buffer, Polyvinylpyrrolidone (average molecular weight 40000) 10 mg/ml, pH 7.5, 25° C.): 3150 µg/mL (≈ 10.6 mM)
solubility at 48 h ([1]; pH 7.5, aqueous buffer, Polyvinylpyrrolidone (average molecular weight 40000) 50 mg/ml, pH 7.5, 25° C.): 10400 µg/mL (≈ 34.7 mM)
solubility at 48 h ([1]; pH 7.5, aqueous buffer, Polyvinylpyrrolidone (average molecular weight 40000) 100 mg/ml, pH 7.5, 25° C.): 18500 µg/mL (≈ 61.9 mM)
solubility at 48 h ([1]; pH 7.5, aqueous buffer, Sodium benzoate 20 mg/ml, pH 7.5, 25° C.): 1060 µg/mL (≈ 3.55 mM)
solubility at 48 h ([1]; pH 7.5, aqueous buffer, Tween 80 10 mg/ml, pH 7.5, 25° C.): 1180 µg/mL (≈ 3.96 mM)
solubility at 48 h ([1]; pH 7.5, aqueous buffer, β-Cyclodextrin 10 mg/ml, pH 7.5, 25° C.): 4390 µg/mL (≈ 14.7 mM)
remaining at 168 h ([2]; pH 7.5, compound (a) 1.0 mg/ml, PVP (MW 40,000) 20 mg/ml, 60° C. after 1 week): 99.5%
remaining at 336 h ([2]; pH 7.5, compound (a) 1.0 mg/ml, PVP (MW 40,000) 20 mg/ml, 60° C. after 2 weeks): 99.2%
remaining at 672 h ([2]; pH 7.5, compound (a) 1.0 mg/ml, PVP (MW 40,000) 20 mg/ml, 60° C. after 4 weeks): 98.4%
remaining at 1344 h ([2]; pH 7.5, compound (a) 1.0 mg/ml, PVP (MW 40,000) 20 mg/ml): 98.1%
remaining at 168 h ([2]; pH 7.5, compound (a) 2.5 mg/ml, PVP (MW 40,000) 50 mg/ml, 60° C. after 1 week): 98.9%
remaining at 336 h ([2]; pH 7.5, compound (a) 2.5 mg/ml, PVP (MW 40,000) 50 mg/ml, 60° C. after 2 weeks): 99.5%
remaining at 672 h ([2]; pH 7.5, compound (a) 2.5 mg/ml, PVP (MW 40,000) 50 mg/ml, 60° C. after 4 weeks): 99.1%
remaining at 1344 h ([2]; pH 7.5, compound (a) 2.5 mg/ml, PVP (MW 40,000) 50 mg/ml): 97%
remaining at 168 h ([2]; pH 7.5, compound (a) 5.0 mg/ml, PVP (MW 40,000) 10 mg/ml + caffeine 10 mg/ml, 60° C. after 1 week): 98.9%
remaining at 336 h ([2]; pH 7.5, compound (a) 5.0 mg/ml, PVP (MW 40,000) 10 mg/ml + caffeine 10 mg/ml, 60° C. after 2 weeks): 99.5%
remaining at 672 h ([2]; pH 7.5, compound (a) 5.0 mg/ml, PVP (MW 40,000) 10 mg/ml + caffeine 10 mg/ml, 60° C. after 4 weeks): 98.1%
remaining at 1344 h ([2]; pH 7.5, compound (a) 5.0 mg/ml, PVP (MW 40,000) 10 mg/ml + caffeine 10 mg/ml): 98.2%
remaining at 168 h ([2]; pH 7.5, compound (a) 10.0 mg/ml, PVP (MW 40,000) 50 mg/ml + β-CD 10 mg/ml, 60° C. after 1 week): 98.7%
remaining at 336 h ([2]; pH 7.5, compound (a) 10.0 mg/ml, PVP (MW 40,000) 50 mg/ml + β-CD 10 mg/ml, 60° C. after 2 weeks): 100%
remaining at 672 h ([2]; pH 7.5, compound (a) 10.0 mg/ml, PVP (MW 40,000) 50 mg/ml + β-CD 10 mg/ml, 60° C. after 4 weeks): 98.3%
remaining at 1344 h ([2]; pH 7.5, compound (a) 10.0 mg/ml, PVP (MW 40,000) 50 mg/ml + β-CD 10 mg/ml): 97.3%
remaining at 672 h ([2]; pH 7.5, no adjuvant, compound (a) 1.0 mg/ml, 60° C. after four weeks): 85.4%
remaining at 168 h ([2]; pH 7.5, no adjuvant, compound (a) 1.0 mg/ml, 60° C. after one week): 99.2%
remaining at 336 h ([2]; pH 7.5, no adjuvant, compound (a) 1.0 mg/ml, 60° C. after two weeks): 97.2%
remaining at 672 h ([2]; pH 7.5, no adjuvant, compound (a) 2.5 mg/ml, 60° C. after four weeks): 66.8%
remaining at 168 h ([2]; pH 7.5, no adjuvant, compound (a) 2.5 mg/ml, 60° C. after one week): 92.1%
remaining at 336 h ([2]; pH 7.5, no adjuvant, compound (a) 2.5 mg/ml, 60° C. after two weeks): 80.5%
amount of compound (a) dissolved by the aqueous liquid preparation of this invention ([3]; aqueous liquid preparation of this invention, pH 7.2-7.8): ≥ 3 mg/mL
solubility ([3]; neutral to alkaline region (pH 7.2-7.8), read-out: solubility): ~1100 µg/mL (≈ 3.69 mM)
solubility ([3]; water, 25° C., read-out: solubility in water): ~10 µg/mL (≈ 0.0335 mM)
solubility ([3]; water, pH 7.5, cold chamber (5° C.), read-out: solubility in water): 300 µg/mL (≈ 1.01 mM)
